Key:
[1] = tested on: C. acnes (DSM 1897); assay: Suspension test with C. acnes; type: cell-based, Cutibacterium acnes; settings: anaerobic medium, sampled after 1 h, 3 h and 6 h
Protocol: (§1) The effect of the formulations according to the invention was further tested in suspension tests with S. epidermidis and C. acnes. […] These liquid stock cultures were used to prepare a first passage. Here, a sterile disposable inoculation loop was used to streak the relevant culture on an agar plate (C. acnes: COST agar, S. epidermidis: COAST agar) and the culture was then incubated. The cultures of C. acnes were incubated at 37° C. for 5 days, whereas the cultures of S. epidermidis were incubated at 37° C. for 24 h. Said first passage was then used to prepare a second passage by picking of a few colonies using a sterile disposable inoculation loop and subsequent streaking thereof onto a new agar plate. Said second passage was then incubated at the appropriate temperature for 5 days or 24 h. The second passage obtained was then used for the suspension test.
(§2) To prepare the suspensions, a few colonies of the second passage were removed using a sterile inoculation loop and added to 10 mL of medium in a baffled flask containing 5 g of glass beads (4 mm diameter) and gently shaken for 3 min. Thereafter, optical density (OD) was used to set the approximate number of cells per mL. Optical density was determined at 600 nm using an Eppendorf photometer. The OD obtained was adjusted to a value around 0.8 (±0.01) and then diluted again 1:50. […]

[2] = tested on: S. epidermidis (DSM 1798); assay: Suspension test with S. epidermidis; type: cell-based, Staphylococcus epidermidis; settings: BHI medium, sampled after 1 h, 3 h and 6 h
Protocol: as §1, §2

Row | Compound | cell count of the anaerobic bacterium C. acnes (FIGS. 4 and 5) [1] | growth of the aerobic bacterium S. epidermidis (FIGS. 4 and 5) [2]
1 | COc1ccc(C(=O)O)cc1 [anisic acid, 4-methoxybenzoic acid] | does not lead to a reduction in the cell count | does not significantly affect the growth
2 | CC(=O)CCC(=O)O [levulinic acid, 4-oxopentanoic acid] | does not lead to a reduction in the cell count | does not significantly affect the growth

Source: US20220401324A1, “COSMETIC PREPARATION WITH ANISIC ACID AND LEVULINIC ACID, HAVING SELECTIVE ANTIMICROBIAL EFFECT” (BEIERSDORF AG, priority 2019, published 2022)
